Earlier results as cited in patent US20230405076A1, “COMPOSITION COMPRISING AKKERMANSIA MUCINIPHILA AND GREEN TEA EXTRACT” (A-MANSIA BIOTECH, priority 2020, published 2023).

Legend:
[1] = via EGCG promoted increase of Akkermansia muciniphila, Sheng 2018
[2] = tested on: Akkermansia genus in the Verrucomicrobia; details: high fat diet mice, Ushiroda 2019

Epigallocatechin-3-gallate
diet-increased obesity, visceral fat, and insulin resistance [1]: effectively reduces
abundance of the Akkermansia genus [2]: increase
